Molecules are shown by their SMILES.

For data set [1], the system named is Hypercholesterolemic rats. Put plainly: Cholesterol lowering in hypercholesterolemic (cholesterol-fed) rats. Type of data set: in vivo, rat. The following applies: for cholesterol lowering: hypercholesterolemic rats, 0.5 mg/kg/d orally; for efficacy in lowering cholesterol: another experiment, dose and route not given. The protocol: Plasma cholesterol values were assessed prior to and following treatment and the effects of compound were expressed as a percentage change from the pre-dose cholesterol levels. […] Compounds were routinely tested for oral efficacy at a dose of 0.5 mg/kg/d. Hypercholesterolemic rats were treated with vehicle, Compound 13-1-cis (a HepDirect version of Compound 7), Compound 19-1 (a diethyl ester of Compound 19-2), Compound 13-9 (a HepDirect version of Compound 19-2), Compound 12-5 (a bisPom version of compound 19-2), or Compound 15-5 (a bisamidate version of Compound 19-2) at 0.5 mg/kg/d orally. Compound 13-1-cis has been extensively characterized and was used as the positive control for the assay.

For data set [2], the system named is cholesterol-fed rat. Put plainly: Subacute studies in cholesterol-fed rats, IP once-a-day for seven days: serum cholesterol, heart weight, heart GPDH.
Method: The cholesterol-fed rat is an animal model of hypercholesterolemia generated by feeding the animals a diet with high cholesterol content.
Serum cholesterol values were assessed and the animals randomized into groups for treatment.
Data set [3] concerns cholesterol-fed rat. The following applies: cited from earlier work.
The conditions of data set [4]: animals, e.g., rodent models and monkeys; cited from earlier work.
The subject of another data set is Sprague Dawley (SD) rat. The data set is described as follows: Cardiovascular activity of T3 mimetics in the Sprague Dawley rat, oral 7 days. Type of data set: in vivo. The following applies: SD rats, p.o. 7 days, Compound 18 1 mg/kg, Compound cis-13-1 1-50 mg/kg/day. The text has this:
Method: […] The control group (n=6) was given vehicle only. […] On the 7th day after the start of dosing, animals were anesthetized with Isoflurane and the left ventricle cannulated with a high fidelity catheter tip transducer via the right carotid artery. Left ventricular pressure, its first derivative (LVdP/dt), lead I ECG, and heart rate (HR) triggered off the ECG waveform, were digitally recorded. LV dP/dt is a well accepted measure of ionotropic state. Systolic and diastolic aortic pressures were measured by retracting the catheter into the proximal aorta.

Data set [5] deals with T1, human thyroid hormone receptors TRβ1 (Homo sapiens, UniProt P10828).
T1 construct: made in house; host or cells: Sf9 insect cells (baculovirus co-infection of TR and RXRα), cell lysate
T1 sequence (P10828 1-461): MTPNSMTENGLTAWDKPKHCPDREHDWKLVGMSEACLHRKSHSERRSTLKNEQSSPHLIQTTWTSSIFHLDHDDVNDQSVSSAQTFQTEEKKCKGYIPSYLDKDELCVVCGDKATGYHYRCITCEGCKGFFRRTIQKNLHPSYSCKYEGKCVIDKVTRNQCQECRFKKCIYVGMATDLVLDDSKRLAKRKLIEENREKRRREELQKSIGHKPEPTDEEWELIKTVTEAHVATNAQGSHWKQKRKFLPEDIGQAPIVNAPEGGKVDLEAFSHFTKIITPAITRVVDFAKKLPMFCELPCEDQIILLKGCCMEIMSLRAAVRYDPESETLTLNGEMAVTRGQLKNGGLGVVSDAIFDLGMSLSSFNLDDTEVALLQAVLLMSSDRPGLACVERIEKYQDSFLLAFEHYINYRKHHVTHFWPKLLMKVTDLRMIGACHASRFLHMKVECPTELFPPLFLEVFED
T1 sequence (P19793 1-462 partner): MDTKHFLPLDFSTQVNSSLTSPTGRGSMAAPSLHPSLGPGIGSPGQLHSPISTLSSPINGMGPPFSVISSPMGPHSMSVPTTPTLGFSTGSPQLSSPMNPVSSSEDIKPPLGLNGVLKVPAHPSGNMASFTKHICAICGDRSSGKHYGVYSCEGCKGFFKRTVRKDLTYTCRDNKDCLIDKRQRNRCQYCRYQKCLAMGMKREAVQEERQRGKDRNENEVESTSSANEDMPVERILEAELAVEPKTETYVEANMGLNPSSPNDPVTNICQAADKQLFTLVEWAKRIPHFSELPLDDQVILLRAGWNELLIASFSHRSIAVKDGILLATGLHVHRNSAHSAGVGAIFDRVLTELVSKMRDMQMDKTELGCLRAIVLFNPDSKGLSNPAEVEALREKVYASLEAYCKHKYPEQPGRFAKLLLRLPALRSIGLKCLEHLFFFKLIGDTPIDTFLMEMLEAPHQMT
Put plainly: Receptor binding, scintillation proximity assay (SPA) with labeled T3; T3 binding also by gel filtration. The following applies: SPA data; read-out: Ki TRβ. As to the method:
(§1) Methods: Baculoviruses expressing TRα1, TRβ1 and RXRα were generated using cDNA and other reagents from Invitrogen (Carlsbad, Calif.). To produce TR/RXR heterodimer proteins, the sf9 insect cells were first grown to a density of 1−5×10^5 cells/mL. TRα1 or TRβ1 and RXRα baculovirus stocks were added to the cell culture with a ratio of 1 to 1 (multiplicity of infection=10). The cells were harvested three days after the infection.
(§2) Binding of compounds to either the TRα1 or TRβ1 were also performed by means of scintillation proximity assays (SPA). The SPA assay, a common method used for the quantitation of receptor-ligand equilibria, makes use of special beads coated with a scintillant and a capture molecule, copper, which binds to the histidine-tagged α or β receptor.

In data set [6] the target is T2, human thyroid hormone receptors TRα1 (Homo sapiens, UniProt P10827).
T2 construct: made in house; host or cells: Sf9 insect cells (baculovirus co-infection of TR and RXRα), cell lysate
T2 sequence (P10827 1-410 isoform P10827-2): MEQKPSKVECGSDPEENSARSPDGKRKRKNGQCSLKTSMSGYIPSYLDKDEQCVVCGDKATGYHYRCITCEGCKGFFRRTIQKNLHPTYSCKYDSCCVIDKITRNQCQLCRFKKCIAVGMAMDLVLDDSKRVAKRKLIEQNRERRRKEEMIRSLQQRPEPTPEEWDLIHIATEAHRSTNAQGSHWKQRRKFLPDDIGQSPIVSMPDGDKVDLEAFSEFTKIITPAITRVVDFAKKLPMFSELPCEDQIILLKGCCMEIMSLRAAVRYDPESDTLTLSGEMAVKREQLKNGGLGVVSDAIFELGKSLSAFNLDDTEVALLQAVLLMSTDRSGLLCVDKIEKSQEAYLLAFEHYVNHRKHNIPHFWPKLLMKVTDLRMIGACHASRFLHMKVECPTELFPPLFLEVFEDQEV
T2 sequence (P19793 1-462 partner): T1 sequence (P19793 1-462 partner)
The data set is described as above. The following applies: SPA data; read-out: Ki TRα. The protocol:
as §1, §2

For data set [7], the system named is Normal rats (Sprague-Dawley). Put plainly: Subacute studies in normal rats, continuous infusion by osmotic pump: liver/heart mGPDH activity, heart weight. Type of data set: in vivo, rat. The following applies: continuous infusion 1 mg/kg/day. The text has this:
Efficacy endpoints include serum cholesterol, liver mitochondrial glycerol phosphate dehydrogenase (mGPDH) activity and the expression of relevant liver genes (e.g., the LDL-receptor, apoB, cpt-1, spot14 and apoAI). Safety parameters include heart weight, heart rate, heart mGPDH activity, the expression and key genes involved in cardiac structure and function (e.g., Serca2, HCN2, Kv1.5, MHCα, MHCβ, Alpha1c), and standard plasma chemistry analysis (liver enzymes, electrolytes, creatinine). Endocrine effects are monitored by analysis of serum thyroid stimulating hormone (TSH). [Taylor et al., Mol Pharmacol 52(3): 542-7 (1997); Weitzel et al., Eur Biochem 268(14):4095-4103 (2001)]
Methods: mGPDH activity was analyzed in isolated mitochondria using 2-(4-iodophenyl)-3-(4-nitrophenyl)-5-phenyl tetrazolium chloride as the terminal electron acceptor (Gardner R S, Analytical Biochemistry 59:272 (1974)). Commercially available GPDH was used in each assay as a standard (Sigma, St. Louis, Mo.). Changes in levels of mRNA for liver and heart genes are analyzed using reverse transcriptase followed by real-time PCR analysis. The analysis is performed using an iCycler instrument (Biorad) and appropriate primers by means of standard methodology [e.g., Schwab D A et al. (2000) Life Sciences 66: 1683-94]. The amounts of mRNA are normalized to an internal control, typically, cyclophilin. Serum TSH is measured using an enzyme immunoassay (EIA) kit designed for rat TSH (Amersham Pharmacia Biotech, Arlington Heights, Ill.).
Normal rats (Sprague-Dawley) were maintained on a standard diet. […] The compounds were brought up to an appropriate volume using PBS and BSA to maintain solubility within the pump. The compounds were chemically stable in the excipient at 37° C. for 7 days.
Values are expressed as percent of control. (Table 4)

The subject of the next data set is Normal rats. Put plainly: Hepatic triglyceride content in normal rats chronically infused for 7 days. The data set is classed as in vivo, rat. As to the method:
Normal rats were chronically infused with Compound 7 for 7 days. Liver triglycerides were analyzed following lipid extraction by the Bligh Dyer method (Bligh E G and Dyer W J, A rapid method of total lipid extraction and purification. Can J Med. Sci. 1959 (August); 37(8):911-7, incorporated herein by reference). Total triglycerides were analyzed in the liver extracts by an enzymatic assay (Thermo Electron Corporation). Total lipid was normalized to initial liver weight and triglyceride content was normalized to liver weight. […] There was a 4% reduction in liver triglycerides for this group and the results were not statistically significant.

As for `CC(C)c1cc(Oc2c(Br)cc(CP(=O)(OCOC(=O)C(C)(C)C)OCOC(=O)C(C)(C)C)cc2Br)ccc1O` [Compound 12-5, Di-(pivaloyloxymethyl)[3,5-dibromo-4-(4′-hydroxy-3′-iso-propylphenoxy)benzyl]phosphonate], the cholesterol lowering result in data set [1] is “significant lowering of cholesterol”.

Regarding `CC(C)c1cc(Oc2c(Cl)c(F)nc(NCP(=O)(OCOC(=O)C(C)(C)C)OCOC(=O)C(C)(C)C)c2Cl)ccc1O` [Compound 12-9], the “efficacy in lowering cholesterol” value in data set [1] was “not efficiacous”.

Turning to `Cc1cc(OC[P@@]2(=O)OCC[C@@H](c3cccc(Br)c3)O2)cc(C)c1Cc1ccc(O)c(C(C)C)c1` [Compound 13-2-cis, 2-[(3,5-dimethyl-4-(4′-hydroxy-3′-iso-propylbenzyl)phenoxy)methyl]-4-(3-bromophenyl)-2-oxo-2λ^5-[1,3,2]-dioxaphosphonane], the “efficacy in lowering cholesterol” value in [1] is given as “not efficiacous”.

For `CCOC(=O)[C@H](C)NP(=O)(Cc1cc(Br)c(Oc2ccc(O)c(C(C)C)c2)c(Br)c1)N[C@@H](C)C(=O)OCC` [Compound 15-5, Di-N-(L-1-ethoxycarbonylethylamino)[3,5-dibromo-4-(4′-hydroxy-3′-iso-propylphenoxy)benzyl]phosphonamide], the cholesterol lowering entry in data set [1] was “significant lowering of cholesterol”.

Take `Cc1cc(OCC(=O)O)cc(C)c1Cc1ccc(O)c(C(C)C)c1` [Compound 17, [3,5-dimethyl-4-(4′-hydroxy-3′-iso-propylbenzyl)phenoxy]acetic Acid]: the serum cholesterol result in the data set on cholesterol-fed rat [2] (0.1-1 mg/kg/day, IP once-a-day for seven days) is listed as “significantly decreased serum cholesterol”. Further, the “therapeutic window (separation between cholesterol lowering and cardiac toxicity)” value with cholesterol-fed rat [2] (cholesterol-fed rats) is “no separation between efficacy (cholesterol lowering) and toxicity”. In addition, the cardiac hypertrophy entry with cholesterol-fed rat [2] (cholesterol-fed rats, IP seven days, Compound 17 0.1-1 mg/kg/day, Compound 7 all doses) is “Undesirable cardiac hypertrophy was observed”.

Consider `CC(C)c1cc(Oc2c(Cl)cc(CC(=O)O)cc2Cl)ccc1O` [Compound 18, 3,5-dichloro-4-[4′-hydroxy-3′-iso-propylphenoxy]benzeneacetic Acid, reference compound], for which, in the data set with cholesterol-fed rat [3], the “therapeutic index (TI) with respect to heart rate increases” value is reported as 40. The weight loss result in data set [4] was “result in weight loss in animals”. Moreover, in the data set on Sprague Dawley (SD) rat (vs control), the Heart weight result is listed as “significantly increased” and the “heart weight normalized to body weight” value is reported as “significantly increased”. Besides, in the data set on Sprague Dawley (SD) rat (vs vehicle), the HR result was “marked and statistically significant increases”; the “LV dP/dt” value is “marked and statistically significant increases”; the systolic aortic pressure result was “marked and statistically significant increases”.

Regarding `CCOP(=O)(Cc1cc(Br)c(Oc2ccc(O)c(C(C)C)c2)c(Br)c1)OCC` [Compound 19-1], in data set [1] (Rattus norvegicus, po, read-out: % Cholesterol Lowering), the change in vivo at 0.5 mg/kg/day is -6.56%.

As usually defined, the Ki is a measure of affinity in units of concentration, obtained from inhibition or displacement. For the compound `Cc1cc(CCP(=O)(O)O)cc(C)c1Cc1ccc(F)c(C(C)C)c1` [Compound 42-2], the Ki in [5] and in [6] was above 2000 nM throughout.

On to `N[C@@H](Cc1cc(I)c(Oc2ccc(O)c(I)c2)c(I)c1)C(=O)O` [Compound T3, triiodothyronine], for which, in data set [7], the “Heart GPDH” value is listed as 284% of control, the “Heart weight” value is listed as 146% of control and the “Liver GPDH” value was 406% of control. Also, the “decrease in hepatic triglyceride content” value with Normal rats is reported as 4%.

These data come from US7829552B2, “Phosphorus-containing thyromimetics” (Metabasis Therapeutics, Inc., priority 2003, dated 2010).
